The molecules below were run against T1, Human STING (Homo sapiens, UniProt Q86WV6, G230A/H232R/R293Q/R71H) (assay: STING reporter assay (luciferase) in THP1-Dual KO-IFNAR2 cells stimulated with 2′3′cGAMP). Settings: 15 μM 2′3′cGAMP, 24 h, class symbols.
T1 construct: host or cells: THP1-Dual KO-IFNAR2 cells
Assay type: cell-based
Description: STING pathway activation by the compounds described herein is measured using THP1 Dual™ cells (KO-IFNAR2).
THP1-Dual™ KO-IFNAR2 Cells (obtained from invivogen) are maintained in RPMI, 10% FCS, 5 ml P/S, 2 mM L-glut, 10 mM Hepes, and 1 mM sodium pyruvate. Compounds are spotted in empty 384 well tissue culture plates (Greiner 781182) by Echo for a final concentration of 0.0017-100 μM. Cells are plated into the TC plates at 40 μL per well, 2×10E6 cells/mL. For activation with STING ligand, 2′3′cGAMP (MW 718.38, obtained from Invivogen), is prepared in Optimem media.
The following solutions are prepared for each 1×384 plate: • Solution A: 2 mL Optimem with one of the following stimuli: • 60 uL of 10 mM 2′3′cGAMP ->150 μM stock • Solution B: 2 mL Optimem with 60 μL Lipofectamine 2000->Incubate 5 min at RT
2 mL of solution A and 2 ml Solution B is mixed and incubated for 20 min at room temperature (RT). 20 uL of transfection solution (A+B) is added on top of the plated cells, with a final 2′3′cGAMP concentration of 15 μM. The plates are then centrifuged immediately at 340 g for 1 minute, after which they are incubated at 37° C., 5% CO2, >98% humidity for 24 h. Luciferase reporter activity is then measured. EC50 values were calculated by using standard methods known in the art.
Luciferase reporter assay: 10 μL of supernatant from the assay is transferred to white 384-plate with flat bottom and squared wells. one pouch of QUANTI-Luc™ Plus is dissolved in 25 mL of water. 100 μL of QLC Stabilizer per 25 mL of QUANTI-Luc™ Plus solution was added. 50 μL of QUANTI-Luc™ Plus/QLC solution per well is then added. Luminescence is measured on a Platereader (e.g., Spectramax I3X (Molecular Devices GF3637001)).
Luciferase reporter activity is then measured. EC50 values are calculated by using standard methods known in the art.

T1 sequence (Q86WV6 whole entry R71H/G230A/H232R/R293Q): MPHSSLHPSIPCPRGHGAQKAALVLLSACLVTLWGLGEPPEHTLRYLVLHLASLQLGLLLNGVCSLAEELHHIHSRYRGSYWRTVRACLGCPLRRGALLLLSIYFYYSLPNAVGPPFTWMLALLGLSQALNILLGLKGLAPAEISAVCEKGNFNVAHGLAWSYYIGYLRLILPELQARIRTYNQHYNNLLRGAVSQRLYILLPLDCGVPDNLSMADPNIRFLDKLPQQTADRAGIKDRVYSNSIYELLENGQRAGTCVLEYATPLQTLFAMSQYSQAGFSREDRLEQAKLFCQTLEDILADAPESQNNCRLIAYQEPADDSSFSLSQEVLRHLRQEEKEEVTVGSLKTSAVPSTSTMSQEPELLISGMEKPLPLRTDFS

SMILES	EC50 [µM]
Fc1cnc2[nH]cc(Nc3ncc(-c4ccccc4)o3)c2c1 [Compound 101, N-[5-fluoro-1H-pyrrolo[2,3-b]pyridin-3-yl]-5-phenyl-1,3-oxazol-2-amine]	0.2 to 1
c1ccc(-c2ccnc(Nc3c[nH]c4cccnc34)c2)cc1 [Compound 102, N-(4-phenylpyridin-2-yl)-1H-pyrrolo[3,2-b]pyridin-3-amine]	5 to 30
c1ccc2sc(Nc3c[nH]c4ccccc34)nc2c1 [Compound 103]	1 to 5
c1ccc(-c2ccnc(Nc3c[nH]c4ccccc34)n2)cc1 [Compound 158]	1 to 5
c1ccc2nc(Nc3c[nH]c4ccccc34)ncc2c1 [Compound 159]	5 to 30
O=c1cc(-c2ccccc2)[nH]c(Nc2c[nH]c3cccnc23)n1 [Compound 160]	1 to 5
Fc1cc2[nH]cc(Nc3ccc4cc(C(F)(F)F)ccc4n3)c2cc1F [Compound 161, N-(5,6-difluoro-1H-indol-3-yl)-6-(trifluoromethyl)quinolin-2-amine]	1 to 5
Fc1cc2[nH]cc(Nc3ccc4ccc(C(F)(F)F)cc4n3)c2cc1F [Compound 162]	0.2 to 1

The remaining lines, values ahead:

EC50 [µM]	SMILES
5 to 30	O=c1cc(-c2ccccc2)[nH]c(Nc2c[nH]c3cc(F)c(F)cc23)n1 [Compound 163, 2-[(5,6-difluoro-1H-indol-3-yl)amino]-6-phenyl-1H-pyrimidin-4-one]
0.2 to 1	c1ccc(-c2cnc(Nc3c[nH]c4ccccc34)s2)cc1 [Compound 165]
1 to 5	c1ccc2cc(Nc3c[nH]c4ccccc34)ncc2c1 [Compound 166]
1 to 5	c1ccc2nc(Nc3c[nH]c4ccccc34)ccc2c1 [Compound 167]
5 to 30	c1ccc(-c2ccc(Nc3c[nH]c4cccnc34)nc2)cc1 [Compound 169]

Same assay, conditions: 15 μM 2′3′cGAMP, 24 h, numeric bounds

EC50 [µM]	SMILES
> 30	O=c1cc[nH]c(Nc2c[nH]c3cc(F)c(F)cc23)n1 [Compound 164]
> 100	O=c1nc(Nc2c[nH]c3cccnc23)ccn1-c1ccccc1 [Compound 168]
